Measured values published in the NIST ThermoML archive (doi:10.1021/je300784x).
± gives the expanded uncertainty stated by the source.

Settings: Liquid, Twin ebulliometer

CCOc1ccccc1O [2-ethoxyphenol]
Settings | vapor or sublimation pressure [kPa]
380.22 K | 2.827 ± 0.015
383.28 K | 3.25 ± 0.015
386.29 K | 3.72 ± 0.015
391.94 K | 4.757 ± 0.015
397.4 K | 5.986 ± 0.015
402.92 K | 7.506 ± 0.016
408.63 K | 9.39 ± 0.016
414.5 K | 11.73 ± 0.016
418.79 K | 13.71 ± 0.016
423.31 K | 16.11 ± 0.016
428.48 K | 19.24 ± 0.017
436.26 K | 24.89 ± 0.018
445.61 K | 33.38 ± 0.019
457.01 K | 46.82 ± 0.023
486.03 K | 100.76 ± 0.025
